According to PMC5451423, “Pharmacokinetic Evaluation of Empagliflozin in Healthy Egyptian Volunteers Using LC-MS/MS and Comparison with Other Ethnic Populations” (Scientific Reports, 2017):
Like-named read-outs stand apart in the source and are kept apart here.

What was measured:
[1] = Single oral dose pharmacokinetic study of EG in healthy Egyptian volunteers (LC-MS/MS of plasma); assay type: in vivo, human; settings: one JARDIANCE tablet 25 mg EG; for Cmax, Mean ± S.D. (% C.V.): n=6, fasting, single oral dose
Method: Each EG calibrator and quality control (QC) plasma sample (980 µL) was spiked with 20 µL containing the appropriate amount of EG in acetonitrile prepared with dilution of EG working solution. All samples including the volunteers’ plasma samples (1 mL plasma) were spiked with 100 µL of IS that contained 100 ng of DG followed by vortexing for 20 sec. Five milliliters of TBME were added, vortexed for 1 min, and centrifuged for 30 min at 6000 rpm. Four milliliters of the organic layer were vacuum evaporated until dryness at 60 °C. Three hundred microliters of acetonitrile were added to reconstitute the resulting residue and vortexed for 3 min. Ten microliters of the reconstituted solution were injected into the LC-MS/MS system.
The pharmacokinetic parameters of EG were studied in healthy human subjects according to the ethical regulations of World Medical Association Declaration of Helsinki (October 1996) and the International Conference of Harmonization Tripartite Guideline for Good Clinical Practice. Written informed consent was provided by each volunteer before enrollment. Approval of the study by the ethical committee was mandatory according to the Egyptian ministry of Health and The British University in Egypt research ethics guidelines. The experimental protocols were approved by the ethics committee of the Faculty of Pharmacy, The British University in Egypt. The clinical trial protocol was registered in a publically accessible primary register that participates in the WHO International Clinical Trial Registry Platform (ClinicalTrials.gov, 16/02/2017, ID: NCT03059056). Good health of the human subjects was confirmed with a complete medical history and physical examination. Fasting of all volunteers eliminated the possible interaction from high fat meals. The evaluation of safety of the study was based on monitoring of blood glucose level, vital signs, pulse rate, monitoring of adverse events, and physical examination. Samples from 6 healthy, adult, male, Egyptian volunteers (age: 22–33 years, average weight: 77.8 kg, average body mass index (BMI): 29.2) were collected at 0, 0.5, 1, 1.5, 2, 3, 4, 8 and 12 hrs, transferred to heparinized centrifuge tubes and analyzed with the proposed method after single oral dose administration of one JARDIANCE tablet nominally containing 25 mg EG. Blood samples (3 mL of each sample) were centrifuged at 3000 rpm for 5 min, 1 mL of the plasma was separated and spiked with 100 µL (equivalent to 100 ng) of IS working solution, and then the procedure discussed under (Sample preparation) was applied. The main pharmacokinetic parameters of the study, Cmax, Tmax, t1/2, elimination rate constant, AUC0-t and AUC0-inf, were estimated using validated Excel software. Blood glucose level was determined for all volunteers at 0 and 1.5 hrs to monitor any hypoglycemic effect. The study was conducted as per FDA guidelines.

[2] = Monitoring of blood glucose level of volunteers (hypoglycemic effect); assay type: in vivo, human; settings: healthy Egyptian volunteers, 25 mg EG single oral dose, determined at 0 and 1.5 hrs
Description: The pharmacokinetic parameters of EG were studied in healthy human subjects according to the ethical regulations of World Medical Association Declaration of Helsinki (October 1996) and the International Conference of Harmonization Tripartite Guideline for Good Clinical Practice. Written informed consent was provided by each volunteer before enrollment. Approval of the study by the ethical committee was mandatory according to the Egyptian ministry of Health and The British University in Egypt research ethics guidelines. The experimental protocols were approved by the ethics committee of the Faculty of Pharmacy, The British University in Egypt. The clinical trial protocol was registered in a publically accessible primary register that participates in the WHO International Clinical Trial Registry Platform (ClinicalTrials.gov, 16/02/2017, ID: NCT03059056). […] Samples from 6 healthy, adult, male, Egyptian volunteers (age: 22–33 years, average weight: 77.8 kg, average body mass index (BMI): 29.2) were collected at 0, 0.5, 1, 1.5, 2, 3, 4, 8 and 12 hrs, transferred to heparinized centrifuge tubes and analyzed with the proposed method after single oral dose administration of one JARDIANCE tablet nominally containing 25 mg EG. […] Blood glucose level was determined for all volunteers at 0 and 1.5 hrs to monitor any hypoglycemic effect. […]

[3] = white German subjects, cited from earlier work
[4] = parameters: method as in PMID 25199997; settings: Japanese subjects, Group 1, n=8, 25 mg empagliflozin; cited from earlier work
[5] = parameters: method as in PMID 26101175; settings: Chinese subjects, Group 2, n=9, 25 mg empagliflozin; cited from earlier work
[6] = parameters: method as in PMID 23859534; settings: glucuronidation is the major metabolic pathway; cited from earlier work

OC[C@H]1O[C@@H](c2ccc(Cl)c(Cc3ccc(O[C@H]4CCOC4)cc3)c2)[C@H](O)[C@@H](O)[C@@H]1O [Empagliflozin]
k el ([1]; male, human, plasma, n=6, single oral dose, read-out: Elimination rate constant, Mean ± S.D. (% C.V.) (converted)): 2.78e-05 s⁻¹
half-life ([1]; male, human, plasma, n=6, single oral dose, read-out: t 1/2, Mean ± S.D. (% C.V.) (converted)): 6.1 ± 1.2 h
Cmax, Mean ± S.D. (% C.V.) ([1]; plasma): 576 ± 86 (14.93) nMol/L
Cmax, Mean ± S.D. (% C.V.) ([1]; plasma, listed as empagliflozin): 576 nmol/L
AUC0-inf, Mean ± S.D. (% C.V.) ([1]; n=6, single oral dose): 4103 ± 427 (10.41) nMol.h/L
AUC0−t (12), Mean ± S.D. (% C.V.) ([1]; n=6, single oral dose, 0-12 h): 2806 ± 234 (8.34) nMol.h/L
AUC0-inf, Mean ± S.D. (% C.V.) ([1]; n=6, single oral dose, listed as empagliflozin): 4103 nmol·h/L
blood glucose level of all volunteers [2]: in the normal range
AUC0-inf, Mean ([3]; Group 1, n=6, 25 mg EG): 3.83 µM·h
Cmax, Mean ([3]; Group 1, n=6, 25 mg EG): 505 nM
AUC0-inf, Mean ([3]; Group 2, n=18, 25 mg EG): 4.77 µM·h
Cmax, Mean ([3]; Group 2, n=18, 25 mg EG): 610 nM
AUC0-inf, Mean ([3]; Group 3, n=9, 25 mg EG): 4.31 µM·h
Cmax, Mean ([3]; Group 3, n=9, 25 mg EG): 606 nM
AUC0-inf, Mean ([3]; Group 4, n=9, 25 mg EG): 4.99 µM·h
Cmax, Mean ([3]; Group 4, n=9, 25 mg EG): 630 nM
AUC0-inf, Mean [4]: 7.56 µM·h
Cmax, Mean [4]: 1070 nM
AUC0-inf, Mean [5]: 7.45 µM·h
Cmax, Mean [5]: 1130 nM
metabolites detected in human plasma [6]: no major metabolites
